The record followed here is ChEMBL document CHEMBL2040746, “Synthesis and evaluation of novel podophyllotoxin analogs” (Bioorg Med Chem Lett, 2012).

Values after ≈ are worked out from the molar mass of the structure shown.

Holding throughout (assay type): functional, cell-based
The subject of assay [1] is A549. Kind of assay: Cytotoxicity against human A549 cells by SRB assay. (Sulforhodamine B stains cellular protein and so reports cell mass.)
Assay [2] has as its system DU-145. Description: Cytotoxicity against human DU145 cells by SRB assay.
Assay [3] deals with KB. Kind of assay: Cytotoxicity against human KB cells by SRB assay.
The nature of assay [4]: Cytotoxicity against human KBVIN cells by SRB assay.

For the compound `COc1cc([C@@H]2c3cc4c(cc3[C@@H](Nc3ccc([N+](=O)[O-])cc3)[C@H]3COC(=O)[C@H]23)OCO4)cc(OC)c1O`, the IC50 (usually the point on the concentration scale where inhibition reaches its midpoint) stood at 0.113 µg/mL (≈ 0.217 µM) in assay [1], 0.8 µg/mL (≈ 1.54 µM) in assay [2], 0.819 µg/mL (≈ 1.57 µM) in assay [3] and 2.1 µg/mL (≈ 4.03 µM) in assay [4].
In the case of `COC(=O)[C@H]1C(/C=C/C(=O)c2ccc(O)cc2)=Cc2cc(OC)c(OC)cc2[C@H]1c1cc(OC)c(OC)c(OC)c1`, the IC50 in assay [1] was 6.79 µg/mL (≈ 12.1 µM); in assay [2], 5.84 µg/mL (≈ 10.4 µM); in assay [3], 5.9 µg/mL (≈ 10.5 µM); in assay [4], 5.17 µg/mL (≈ 9.22 µM).
Turning to `COc1cc2c(cc1OC)[C@@H](c1cc(OC)c(OC)c(OC)c1)[C@H](C(=O)N1CCCC1)C(/C=C/C(=O)c1ccc(C3CCCCC3)cc1)=C2`, the IC50 amounted to 12 µg/mL (≈ 18 µM) in assay [1], 12.8 µg/mL (≈ 19.2 µM) in assay [2], 12.3 µg/mL (≈ 18.4 µM) in assay [3] and 12.3 µg/mL (≈ 18.5 µM) in assay [4].
`COC(=O)[C@H]1C(/C=C/C(=O)c2ccc([N+](=O)[O-])cc2)=Cc2cc(OC)c(OC)cc2[C@H]1c1cc(OC)c(OC)c(OC)c1`: the IC50 came out at 16.8 µg/mL (≈ 28.5 µM) in assay [1], 20.3 µg/mL (≈ 34.4 µM) in assay [2], 16 µg/mL (≈ 27.1 µM) in assay [3] and 23 µg/mL (≈ 39 µM) in assay [4].
Turning to `COc1cc2c(cc1OC)[C@@H](c1cc(OC)c(OC)c(OC)c1)[C@H](C(=O)N1CCCC1)C(/C=C/C(=O)c1ccc(-c3ccccc3)cc1)=C2`, the IC50 in assay [1] is 24.6 µg/mL (≈ 37.3 µM); in assay [2], 15.5 µg/mL (≈ 23.4 µM); in assay [3], 16.6 µg/mL (≈ 25.2 µM); in assay [4], 16.9 µg/mL (≈ 25.6 µM).
